Read-outs that look alike come from different tables or passages of the source.
Legend:
[1] = solubility of the tosylate salt; assay type: physicochemical; details: crystalline tosylate salt
[2] = radiolabeled base, monkeys; cited from earlier work
[3] = solid form; cited from earlier work
[4] = radiolabeled base, humans; cited from earlier work

solubility [1]	SMILES	absorption into blood plasma [2]	aqueous solubility [3]	absorption into blood plasma [4]
soluble	CC1(C)C(=O)NC2=Nc3ccc(Cl)c(Cl)c3CN21.Cc1ccc(S(=O)(=O)O)cc1 [3,3-dimethylanagrelide tosylate, 3,3-Dimethylanagrelide Tosylate]			
	O=C1CN2Cc3c(ccc(Cl)c3Cl)N=C2N1 [compound III, 6,7-dichloro-1,5-dihydroimidazo[2,1-b]quinazolin 2 (3H)-one]	complete absorption	low	complete absorption
